Test results from article PMC8359396, “Pharmacological validation of TDO as a target for Parkinson’s disease” (The Febs Journal, 2021).

Key:
[1] = target: T1, recombinant human TDO (hTDO) (Homo sapiens, UniProt P48775); experiment: biochemical
[2] = target: T2, human MDR1 P‐glycoprotein‐overexpressing MDCK cells (Homo sapiens, UniProt P08183); experiment: Bi‐directional transport assay, MDCK‐MDR1 monolayer; format: in vitro ADME; details: MDCK‐MDR1, with and without elacridar
T2 construct: host or cells: MDCK (canine kidney)
T2 sequence (P08183 whole entry): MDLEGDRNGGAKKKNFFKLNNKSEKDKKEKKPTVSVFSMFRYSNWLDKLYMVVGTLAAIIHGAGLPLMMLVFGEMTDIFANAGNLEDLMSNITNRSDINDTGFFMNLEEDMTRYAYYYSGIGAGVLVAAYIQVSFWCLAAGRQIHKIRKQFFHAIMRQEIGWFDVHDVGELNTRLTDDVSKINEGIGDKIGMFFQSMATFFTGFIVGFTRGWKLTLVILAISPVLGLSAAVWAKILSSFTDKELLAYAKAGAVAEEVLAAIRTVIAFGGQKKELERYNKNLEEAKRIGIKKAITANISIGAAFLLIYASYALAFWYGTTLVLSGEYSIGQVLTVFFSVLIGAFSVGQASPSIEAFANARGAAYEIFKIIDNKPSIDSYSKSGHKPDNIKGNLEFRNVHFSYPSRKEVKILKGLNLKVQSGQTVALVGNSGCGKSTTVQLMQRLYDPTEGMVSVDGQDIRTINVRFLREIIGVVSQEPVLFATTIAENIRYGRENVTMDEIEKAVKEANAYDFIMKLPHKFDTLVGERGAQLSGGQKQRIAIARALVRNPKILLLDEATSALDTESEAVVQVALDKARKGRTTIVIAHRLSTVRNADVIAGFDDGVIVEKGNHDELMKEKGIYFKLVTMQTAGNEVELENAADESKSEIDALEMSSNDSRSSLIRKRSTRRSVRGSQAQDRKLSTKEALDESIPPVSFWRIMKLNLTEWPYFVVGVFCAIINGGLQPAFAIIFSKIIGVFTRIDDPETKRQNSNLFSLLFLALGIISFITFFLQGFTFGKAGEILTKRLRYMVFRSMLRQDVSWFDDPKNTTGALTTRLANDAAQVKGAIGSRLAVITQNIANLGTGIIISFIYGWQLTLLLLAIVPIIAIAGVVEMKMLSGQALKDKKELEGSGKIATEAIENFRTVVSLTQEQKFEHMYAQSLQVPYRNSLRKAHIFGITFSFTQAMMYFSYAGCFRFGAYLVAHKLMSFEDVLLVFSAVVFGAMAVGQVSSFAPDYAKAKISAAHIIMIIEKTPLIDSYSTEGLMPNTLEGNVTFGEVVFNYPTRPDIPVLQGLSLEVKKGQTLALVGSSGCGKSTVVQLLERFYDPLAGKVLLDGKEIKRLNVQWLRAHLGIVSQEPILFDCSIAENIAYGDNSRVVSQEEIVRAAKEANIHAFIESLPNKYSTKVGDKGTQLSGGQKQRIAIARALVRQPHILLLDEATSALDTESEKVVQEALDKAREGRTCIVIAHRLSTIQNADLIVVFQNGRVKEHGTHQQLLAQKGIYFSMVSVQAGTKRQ
Protocol: (§1) To determine whether NTRC 3531‐0 could potentially enter the brain, a bi‐directional transport assay was performed with Madin‐Darby canine kidney (MDCK) cells overexpressing the human ABCB1 gene‐encoded MDR1 P‐glycoprotein (MDCK‐MDR1) at Cyprotex (Macclesfield, UK). MDCK‐MDR1 cells form a confluent monolayer in Transwell® cell culture plates (Corning) and express active MDR1 P‐glycoprotein at the apical side. The cell model is a surrogate model of the brain capillary endothelial cell layer that constitutes the blood–brain barrier. The transport of NTRC 3531‐0 from the apical (A) to the basolateral (B) side of the monolayer (P app, A to B), and from basolateral (B) to apical (A) (P app, B to A), was determined by measuring compound levels in the two compartments of the Transwell plates by liquid chromatography–tandem mass spectrometry (LC‐MS/MS) (Table 2). Transport assays were performed in the absence and presence of the P‐glycoprotein inhibitor elacridar.

[3] = target: T3, human MDR1 P-glycoprotein (ABCB1) (Homo sapiens, UniProt P08183); experiment: as above; format: in vitro ADME; details: dog; MDCK‐MDR1; Elacridar −
T3 construct: host or cells: MDCK (canine kidney)
T3 sequence (P08183 whole entry): as above
Protocol: as §1

[4] = target: CYP2C19 (Homo sapiens, UniProt P33261); experiment: CYP enzyme panel; format: biochemical
Sequence of CYP2C19 (P33261 whole entry): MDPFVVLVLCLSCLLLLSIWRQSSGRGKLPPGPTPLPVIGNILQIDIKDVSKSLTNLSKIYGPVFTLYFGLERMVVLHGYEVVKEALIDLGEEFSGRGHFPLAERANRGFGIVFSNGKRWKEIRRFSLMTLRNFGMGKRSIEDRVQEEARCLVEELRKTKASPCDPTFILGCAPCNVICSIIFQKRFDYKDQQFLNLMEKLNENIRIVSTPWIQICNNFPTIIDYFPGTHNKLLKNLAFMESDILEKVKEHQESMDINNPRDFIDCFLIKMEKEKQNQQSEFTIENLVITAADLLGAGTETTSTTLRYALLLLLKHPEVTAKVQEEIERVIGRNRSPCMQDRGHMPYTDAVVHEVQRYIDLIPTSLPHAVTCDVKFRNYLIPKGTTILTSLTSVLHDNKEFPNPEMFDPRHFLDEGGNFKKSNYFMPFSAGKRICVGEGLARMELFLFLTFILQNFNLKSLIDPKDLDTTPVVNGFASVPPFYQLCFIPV
From the text: (§2) Since TDO contains a heme center, similar to cytochrome P450 (CYP) enzymes, we evaluated the selectivity of NTRC 3531‐0 on a panel of seven CYP enzymes, that is, CYP1A2, CYP2B6, CYP2C8, CYP2C9, CYP2C19, CYP2D6, and CYP3A4.

[5] = target: CYP1A2 (Homo sapiens, UniProt P05177); experiment: CYP enzyme panel; format: biochemical
From the text: as §2

[6] = target: CYP2C8 (Homo sapiens, UniProt P10632); experiment: CYP enzyme panel; format: biochemical
From the text: as §2

[7] = target: CYP2D6 (Homo sapiens, UniProt P10635); experiment: CYP enzyme panel; format: biochemical
From the text: as §2

[8] = target: CYP2B6 (Homo sapiens, UniProt P20813); experiment: CYP enzyme panel; format: biochemical
Sequence of CYP2B6 (P20813 whole entry): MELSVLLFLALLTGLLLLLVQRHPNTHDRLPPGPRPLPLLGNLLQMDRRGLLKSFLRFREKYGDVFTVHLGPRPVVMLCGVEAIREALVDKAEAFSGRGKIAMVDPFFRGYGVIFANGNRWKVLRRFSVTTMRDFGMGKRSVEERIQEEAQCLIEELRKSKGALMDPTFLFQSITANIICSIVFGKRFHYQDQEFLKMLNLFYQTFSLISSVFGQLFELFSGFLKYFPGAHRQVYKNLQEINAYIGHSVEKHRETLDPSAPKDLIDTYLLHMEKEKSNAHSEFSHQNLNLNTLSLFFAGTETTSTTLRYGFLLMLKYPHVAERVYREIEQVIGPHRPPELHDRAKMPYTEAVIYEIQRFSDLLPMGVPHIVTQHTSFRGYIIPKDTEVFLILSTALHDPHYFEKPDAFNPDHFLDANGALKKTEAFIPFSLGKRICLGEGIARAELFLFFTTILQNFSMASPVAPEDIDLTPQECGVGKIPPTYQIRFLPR
From the text: as §2

[9] = target: CYP2C9 (Homo sapiens, UniProt P11712); experiment: CYP enzyme panel; format: biochemical
From the text: as §2

[10] = target: CYP3A4 (Homo sapiens, UniProt P08684); experiment: CYP enzyme panel; format: biochemical
From the text: as §2

[11] = test system: rotenone‐induced mouse model of PD; experiment: α‐Synuclein immunofluorescent staining of colon in rotenone model; format: in vivo, male C57BL/6NCrl mice; details: rotenone mice
Protocol: Parkinson’s disease is associated with the activation of glial cells in the enteric nervous system. Furthermore, aggregates of α‐synuclein have been observed in the enteric nervous system of PD patients. The expression of glial fibrillary acidic protein (GFAP), a marker of enteric glial cells, and of α‐synuclein was determined by immunofluorescent staining of fixed sections of the colons of the sacrificed mice.
Expression of GFAP and α‐synuclein in colonic tissue was determined using confocal microscopy (Leica SP8). The colons of the mice were embedded in paraffin. Sections of 15 µm were cut and incubated with 0.3% (v/v) H2O2 for 30 min, rehydrated and incubated with citrate buffer. Following blocking with serum, the sections were incubated overnight with rabbit anti‐α‐synuclein (Millipore, cat. no. AB5038; Burlington, MA, USA) at a dilution of 1 : 1000, or rabbit anti‐GFAP (Dako, cat. no. Z0334), 1 : 1000. After incubation with Alexa® 488‐labeled donkey anti‐rabbit secondary antibody, the slides were mounted using Vectashield® medium for fluorescence with DAPI (Vector Laboratories, cat. no. H‐1000; Burlingame, CA, USA).
Immunofluorescence images were made using a Keyence BZ‐9000 microscope. GFAP and α‐synuclein staining were quantified by calculation of the corrected total fluorescence (CTF) with the formula: integrated density – (area × mean fluorescence of background reading).

[12] = test system: rotenone‐induced mouse model of PD; experiment: TH‐positive (dopaminergic) cells in substantia nigra, iDISCO; format: in vivo, male C57BL/6NCrl mice; details: rotenone mice, P < 0.01
[13] = target: mouse TDO (mTDO) (Mus musculus, UniProt P48776); experiment: TDO biochemical assay (NFK Green), mTDO
Sequence of mouse TDO (mTDO) (P48776 whole entry): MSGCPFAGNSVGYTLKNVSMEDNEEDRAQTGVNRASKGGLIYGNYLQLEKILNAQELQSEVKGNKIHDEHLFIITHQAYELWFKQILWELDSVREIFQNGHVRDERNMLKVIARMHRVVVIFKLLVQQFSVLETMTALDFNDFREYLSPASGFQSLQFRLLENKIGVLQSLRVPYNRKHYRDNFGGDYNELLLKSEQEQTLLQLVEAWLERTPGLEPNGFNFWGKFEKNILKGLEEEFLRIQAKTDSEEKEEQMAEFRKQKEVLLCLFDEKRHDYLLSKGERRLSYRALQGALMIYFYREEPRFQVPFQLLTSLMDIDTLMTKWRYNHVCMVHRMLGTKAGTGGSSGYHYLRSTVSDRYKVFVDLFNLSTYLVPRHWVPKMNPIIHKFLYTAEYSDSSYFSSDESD

[14] = target: hTDO2‐overexpressing HEK‐293 cells (HEK‐hTDO) (Homo sapiens, UniProt P48775); experiment: Cell-based TDO assay, HEK‐hTDO cells (NFK Green)
Sequence of hTDO2‐overexpressing HEK‐293 cells (HEK‐hTDO) (P48775 whole entry): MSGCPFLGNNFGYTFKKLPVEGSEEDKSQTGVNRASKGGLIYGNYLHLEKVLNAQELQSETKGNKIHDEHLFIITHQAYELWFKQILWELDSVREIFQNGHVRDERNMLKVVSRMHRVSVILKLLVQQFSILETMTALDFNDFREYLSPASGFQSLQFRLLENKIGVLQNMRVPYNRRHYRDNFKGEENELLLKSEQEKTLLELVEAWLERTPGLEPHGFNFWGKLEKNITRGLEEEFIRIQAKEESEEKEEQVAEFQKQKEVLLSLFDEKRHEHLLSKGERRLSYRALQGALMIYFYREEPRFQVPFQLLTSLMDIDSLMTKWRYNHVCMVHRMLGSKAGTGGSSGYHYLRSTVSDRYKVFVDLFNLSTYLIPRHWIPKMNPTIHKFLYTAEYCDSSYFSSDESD

[15] = target: recombinant hIDO1 (Homo sapiens, UniProt P14902); experiment: IDO1 biochemical assay (NFK Green); details: for inhibition at 0.6 µM: read-out: inhibition hIDO1
Sequence of recombinant hIDO1 (P14902 whole entry): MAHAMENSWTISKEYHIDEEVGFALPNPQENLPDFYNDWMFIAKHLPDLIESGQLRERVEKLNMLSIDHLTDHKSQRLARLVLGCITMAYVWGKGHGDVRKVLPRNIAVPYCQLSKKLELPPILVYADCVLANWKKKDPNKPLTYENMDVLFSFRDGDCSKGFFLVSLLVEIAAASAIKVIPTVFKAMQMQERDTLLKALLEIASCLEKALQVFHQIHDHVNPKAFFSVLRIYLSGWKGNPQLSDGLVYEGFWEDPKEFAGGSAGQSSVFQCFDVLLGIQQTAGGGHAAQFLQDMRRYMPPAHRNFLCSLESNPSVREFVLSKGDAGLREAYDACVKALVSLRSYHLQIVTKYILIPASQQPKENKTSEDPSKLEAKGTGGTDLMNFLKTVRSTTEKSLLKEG

[16] = target: T1, recombinant human TDO (hTDO)
[17] = test system: constitutively TDO‐expressing human glioblastoma A172 cell line; parameters: method as in PMID 31806638; details: cited from earlier work
[18] = test system: hTDO‐overexpressing HEK‐293 cells; parameters: method as in PMID 22308364; details: originally reported; cited from earlier work

T1 sequence (P48775 whole entry): as the sequence (P48775 whole entry) above

C[C@@H](CO)NC(=O)c1ccc(-c2c[nH]c3cc(F)ccc23)cc1 [NTRC 3531‐0]
IC50 [1]: 0.49 µM
P‐glycoprotein substrate status [2]: could be a weak substrate of P‐glycoprotein
Papp A→B [3]: 15.7 ×10⁻⁶ cm/s
Papp B→A [3]: 52 ×10⁻⁶ cm/s
efflux ratio [3]: 3.32
IC50 [4]: > 31.6 µM
IC50 [5]: > 31.6 µM
IC50 [6]: 16.3 µM
IC50 [7]: > 31.6 µM
IC50 [8]: > 31.6 µM
IC50 [9]: > 31.6 µM
IC50 [10]: > 31.6 µM
expression of α‐synuclein in the enteric plexus ([11]; all doses: 25 mg·kg^−1, P < 0.05, 50 and 100 mg·kg^−1, P < 0.01): decrease in the expression of α‐synuclein
rotenone‐induced loss of TH‐positive cells in the SN ([12]; highest dose (100 mg·kg^−1)): decreased the rotenone‐induced loss of TH‐positive cells
IC50 [13]: 0.846 µM
IC50 [14]: 0.816 µM
selectivity for hTDO over hIDO1, HEK‐293 cell‐based assays [14]: at least 25 times
IC90 ([14]; HEK293): 2.5 µM
activity on hIDO1 in the biochemical assay ([15]; highest tested concentration 31.6 µM): inactive
inhibition at 0.6 µM [15]: < 20%
selectivity for hTDO over hIDO1, biochemical assays [16]: more than 60 times

Fc1ccc2c(/C=C/c3nnn[nH]3)c[nH]c2c1 [LM10, reference compound]
IC50 [17]: 24 µM
P‐glycoprotein substrate status [2]: not a P‐glycoprotein substrate
Papp A→B [3]: 5.63 ×10⁻⁶ cm/s
Papp B→A [3]: 1.58 ×10⁻⁶ cm/s
potency in hTDO‐overexpressing HEK‐293 cells [18]: high‐nanomolar potent inhibitor
expression of α‐synuclein in the enteric plexus ([11]; all doses: 12.5 mg·kg^−1, P < 0.01, 25 and 50 mg·kg^−1, P < 0.001): decrease in the expression of α‐synuclein
rotenone‐induced loss of TH‐positive cells in the SN ([12]; two highest doses (25 and 50 mg·kg^−1)): decreased the rotenone‐induced loss of TH‐positive cells
IC50 [13]: 1.07 µM
inhibition at 0.6 µM ([14]; HEK293, read-out: inhibition HEK‐hTDO): 33%
inhibition at 0.6 µM [15]: < 20%
